Experimental data reported in patent US20100113517A1, “METHOD FOR THE TREATMENT OF FABRY DISEASE USING PHARMACOLOGICAL CHAPERONES” (AMICUS THERAPEUTICS, INC., priority 2007, published 2010).
Positions count from the first letter of the chain named.

Key:
[1] = Phase II study in Fabry patients, cardiac, renal and central nervous system function; type: in vivo, Fabry patients (human); conditions: after 12 to 48 weeks of treatment
Protocol: Study Design. A two-arm design was planned. […] In the second arm, escalating doses of 25, 100, and then 250 mg b.i.d. over 6 weeks, followed by 50 mg/day for the remainder of the study. Cardiac anaylsis. In addition to the biopsies described above, MRIs and echocardiogram with strain rate evaluations will be performed at baseline, 3 and 6 months to assess cardiac morphology (e.g., left ventricular hyertrophy) and cardiac function (e.g., congestive heart failure, ischemia, infarction, arrhythmia). […] Hypertension will also be ealuated since hypertension (associated with renal dysfunction) can increase the risk for hemorrhagic stroke.

mutant (R301Q) α-Gal A = biological target: T1, mutant (R301Q) α-Gal A (Homo sapiens, UniProt P06280, R301Q); conditions: oral administration; cited from earlier work
T1 construct: host or cells: major organs of transgenic mice overexpressing R301Q α-Gal A
T1 sequence (P06280 32-429 R301Q): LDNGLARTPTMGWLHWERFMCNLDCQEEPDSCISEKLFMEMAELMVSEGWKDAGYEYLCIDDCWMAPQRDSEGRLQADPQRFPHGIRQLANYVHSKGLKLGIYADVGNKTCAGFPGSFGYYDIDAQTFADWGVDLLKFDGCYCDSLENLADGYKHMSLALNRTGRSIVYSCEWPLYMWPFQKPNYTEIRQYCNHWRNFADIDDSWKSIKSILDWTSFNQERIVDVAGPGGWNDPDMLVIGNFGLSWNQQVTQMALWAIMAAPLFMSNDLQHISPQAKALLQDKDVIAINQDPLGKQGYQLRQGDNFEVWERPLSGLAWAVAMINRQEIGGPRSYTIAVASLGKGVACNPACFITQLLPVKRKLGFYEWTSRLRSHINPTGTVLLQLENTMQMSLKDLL

[2] = Phase Ib twice daily oral dose study, safety and tolerability; type: in vivo, healthy volunteers (human)
Protocol: Study Design and Duration. […] Subjects were housed in the treatment facility from 14 hours prior to dosing until 24 hours after dosing. Meals were controlled by schedule and subjects remained abulatory for 4 hours post drug administration
(§1) Safety and Tolerability Assessments.
WBC α-GAL A Enzymatic Activity Sampling. Blood samples (10 mL each) were collected in blood collection tubes containing EDTA and WBC extracted before dosing and at the following times thereafter: 100 hours, 150 hours, and 336 hours. Samples were treated as described above, and WBC α-Gal A enzymatic activity levels were determined as described in Desnick, R. J. (ed) Enzyme therapy in genetic diseases. Vol 2. Alan R Liss, New York, pp 17-32. Statistical Analysis. Safety data including laboratory evaluations, physical exams, adverse events, ECG monitoring and vital signs assessments were summarized by treatment group and point of time of collection. Descriptive statistics (arithmetic mean, standard deviation, median, minimum and maximum) were calculated for quantitative safety data as well as for the difference to baseline. Frequency counts were compiled for classification of qualitative safety data. In addition, a shift table describing out of normal range shifts was provided for clinical laboratory results. A normal-abnormal shift table was also presented for physical exam results and ECGs. […]

α-Gal A [3] = test: Plasma concentration at which enzyme activity enhancement is seen (clinical and preclinical studies); type: in vivo; conditions: clinical studies and preclinical studies in mice
α-Gal A [4] = biological target: T2, α-Gal A (Homo sapiens, UniProt P06280); test: Phase Ib WBC α-Gal A enzymatic activity; type: in vivo, healthy volunteers (human)
T2 construct: α-Gal A activity was calculated in white blood cells (WBC) before dosing began; endogenous in cells; host or cells: white blood cells of healthy human volunteers
T2 sequence (P06280 32-429): T1 sequence (P06280 32-429 R301Q) with Q270R
Protocol: WBC α-GAL A Enzymatic Activity Sampling. Blood samples (10 mL each) were collected in blood collection tubes containing EDTA and WBC extracted before dosing and at the following times thereafter: 100 hours, 150 hours, and 336 hours. Samples were treated as described above, and WBC α-Gal A enzymatic activity levels were determined as described in Desnick, R. J. (ed) Enzyme therapy in genetic diseases. Vol 2. Alan R Liss, New York, pp 17-32. Statistical Analysis. Safety data including laboratory evaluations, physical exams, adverse events, ECG monitoring and vital signs assessments were summarized by treatment group and point of time of collection. Descriptive statistics (arithmetic mean, standard deviation, median, minimum and maximum) were calculated for quantitative safety data as well as for the difference to baseline. Frequency counts were compiled for classification of qualitative safety data. In addition, a shift table describing out of normal range shifts was provided for clinical laboratory results. A normal-abnormal shift table was also presented for physical exam results and ECGs.

[5] = Phase I ascending single oral dose study, safety and tolerability; type: in vivo, healthy volunteers (human); conditions: healthy male subjects, single doses 25 mg through 675 mg
Protocol: Study Design and Duration. […] Dose escalation to the next dose level (i.e., next group) proceeded following review of safety and tolerability of the previous group(s). Subjects were housed in the treatment facility from 14 hours prior to dosing until 24 hours after dosing. Meals were controlled by schedule and subjects remained abulatory for 4 hours post drug administration.
as §1
Statistical Analysis. Safety data including laboratory evaluations, physical exams, adverse events, ECG monitoring and vital signs assessments were summarized by treatment group and point of time of collection. Descriptive statistics (arithmetic mean, standard deviation, median, minimum and maximum) were calculated for quantitative safety data as well as for the difference to baseline. Frequency counts were compiled for classification of qualitative safety data. In addition, a shift table describing out of normal range shifts was provided for clinical laboratory results. A normal-abnormal shift table was also be presented for physical exam results and ECGs.
Concomitant medications and medical history were listed by treatment.

[6] = biological target: T3, human mutant α-Gal A (R301Q) (Homo sapiens, UniProt P06280, R301Q); conditions: neutral pH; cited from earlier work
T3 construct: Tissue lysates were prepared by homogenizing about 50 mg tissue in assay buffer; from tissue; host or cells: heart, kidney, skin, liver and spleen of R301Q Tg/KO mice (human transgene, mouse α-Gal A knocked out)
T3 sequence (P06280 32-429 R301Q): T1 sequence (P06280 32-429 R301Q)

[7] = tested on: mutant α-Gal A (R301Q or Q279E); conditions: lymphoblasts from Fabry patients with R301Q or Q279E mutations; cited from earlier work

## OCC1NCC(O)C(O)C1O (stereo not drawn) [DGJ, 1-deoxygalactonojirimycin]
[1]
  cardiac, renal and central nervous system function: no clinically meaningful changes
Mutant (R301Q) α-Gal A
  enzyme activity in major organs: substantially elevated
[2]; after 50 mg b.i.d. or 150 mg b.i.d.
  adverse events (AEs): no subject presented with AEs
[2]; healthy male subjects, 50 mg b.i.d. and 150 mg b.i.d., seven days
  safety and tolerability: safe and well tolerated
α-Gal A [3]
  plasma concentration at which the pharmacological effect (enzyme activity enhancement) is seen: approximately 0.4 μM
α-Gal A [4]; 50 mg b.i.d. or 150 mg b.i.d.
  inhibition of WBC α-Gal A enzymatic activity: did not inhibit
α-Gal A [4]; 50 mg b.i.d., 100 hours
  WBC α-Gal A enzymatic activity: 120 % pre-dose levels
α-Gal A [4]; 50 mg b.i.d., 150 hours
  WBC α-Gal A enzymatic activity: 130 % pre-dose levels
α-Gal A [4]; 50 mg b.i.d., 336 hours
  WBC α-Gal A enzymatic activity: 145 % pre-dose levels
α-Gal A [4]; 150 mg b.i.d., 100 hours
  WBC α-Gal A enzymatic activity: 150 % pre-dose levels
α-Gal A [4]; 150 mg b.i.d., 150 hours
  WBC α-Gal A enzymatic activity: 185 % pre-dose levels
α-Gal A [4]; 150 mg b.i.d., 336 hours
  WBC α-Gal A enzymatic activity: 185 % pre-dose levels
[5]
  safety and tolerability: safe and well tolerated
[6]
  in vitro stability of mutant α-Gal A: effectively increased
[7]
  enhancement of mutant enzyme activity: ≥ 45%
